Measured values reported in article PMC314469, “Protein Interaction Networks by Proteome Peptide Scanning” (PLoS Biology, 2004).

Tested on: Myo5 SH3 domain
Assay: SPOT analysis of cellulose-bound peptides (WISE), Myo5 SH3 domain (Dataset S4)
Assay type: binding, Saccharomyces cerevisiae
Conditions: for The normalized value in BLU units: Myo5 SH3 domain
[1] = SPOT analysis of cellulose-bound peptides probed with Myo5 SH3 domain, normalized value
[2] = SPOT analysis of cellulose-bound 14-mer yeast proteome peptides, normalized value, mean where the peptide was synthesized more than once
[3] = SPOT analysis of membrane-synthesized peptides probed with Myo5 SH3 domain, normalized value
[4] = SPOT analysis of membrane-bound peptides, normalized value (see methods)

HEKLYHNPSLPAQS
The normalized value in BLU units (SPOT analysis, Myo5 SH3) [1]: 78.1 BLU

SKRMKALPKGPAAL
The normalized value in BLU units [2]: 821.6 BLU

IQQNKQGPKIPFYL
The normalized value in BLU units (SPOT analysis, Myo5 SH3) [3]: 86.9 BLU

SPKKHVSPSRPPSV
The normalized value in BLU units (SPOT analysis, Myo5 SH3) [1]: 1427.8 BLU

KKVIRNYPGHPEGT
The normalized value in BLU units (SPOT analysis, Myo5 SH3) [3]: 417.8 BLU

PPNYKQQPNCPSSN
The normalized value in BLU units (SPOT analysis, Myo5 SH3) [3]: 147.5 BLU

EKVFRGDPEHPAIS
The normalized value in BLU units [4]: 90.0 BLU

NDLVKRFPEQPPLR
The normalized value in BLU units [4]: 21447.2 BLU

LGPLKYAPHLPFSK
The normalized value in BLU units [4]: 427.6 BLU

RLWLYAAPKRPKTF
The normalized value in BLU units (SPOT analysis, Myo5 SH3) [1]: 845.1 BLU

YFKELPPPSDPSSI
The normalized value in BLU units [2]: 164.8 BLU

KNLLREIPQVPAFQ
The normalized value in BLU units (SPOT analysis, Myo5 SH3) [3]: 104.1 BLU

TSWARDNPSKPDIA
The normalized value in BLU units [4]: 81.6 BLU

AMESRVAPEIPGLI
The normalized value in BLU units [4]: 426.0 BLU

IGSPRHAPSRPDSI
The normalized value in BLU units (SPOT analysis, Myo5 SH3) [3]: 193.4 BLU

PSRSKSNPILPIMR
The normalized value in BLU units [2]: 522.7 BLU

GIKVKRIPYSPKSI
The normalized value in BLU units [4]: 390.6 BLU

EELARVTPLTPKEY
The normalized value in BLU units (SPOT analysis, Myo5 SH3) [3]: 181.5 BLU

KALPKRRPSPPLQS
The normalized value in BLU units (SPOT analysis, Myo5 SH3) [3]: 1137.8 BLU

HEHNYAIPYTPATF
The normalized value in BLU units [2]: 129.1 BLU

YEGPRGAPGMPEML
The normalized value in BLU units [4]: 166.5 BLU

KKNPKKSPMGPQGA
The normalized value in BLU units (SPOT analysis, Myo5 SH3) [3]: 1007.5 BLU

IEPDFIEPDAPLAA
The normalized value in BLU units (SPOT analysis, Myo5 SH3) [1]: 61.4 BLU

TLFRFIVPFNPYFS
The normalized value in BLU units [2]: 881.8 BLU

QLINRFMPHFPSSP
The normalized value in BLU units (SPOT analysis, Myo5 SH3) [3]: 518.2 BLU

SKVNKVAPDHPFIQ
The normalized value in BLU units [2]: 72.1 BLU

SLAVYNIPLFPDDP
The normalized value in BLU units (SPOT analysis, Myo5 SH3) [1]: 91.7 BLU

MYDRKVIPRMPWHD
The normalized value in BLU units (SPOT analysis, Myo5 SH3) [3]: 357.4 BLU

NLYQRTTPAGPDPS
The normalized value in BLU units [2]: 114.4 BLU

TQMKRLKPVSPGLR
The normalized value in BLU units [4]: 1445.1 BLU

IKMSRSPPRPPSLK
The normalized value in BLU units (SPOT analysis, Myo5 SH3) [3]: 17731.3 BLU

QELRFLVPLVPLLV
The normalized value in BLU units (SPOT analysis, Myo5 SH3) [1]: 119.1 BLU

QLRSLFKPFGPILN
The normalized value in BLU units [2]: 369.9 BLU

LPTGYYEPMKPSSL
The normalized value in BLU units (SPOT analysis, Myo5 SH3) [1]: 164.9 BLU

MTVPRNRPMAPFGT
The normalized value in BLU units [2]: 595.6 BLU

MDMDRNVPLAPNLN
The normalized value in BLU units [4]: 91.4 BLU

TSGYKYFPQFPQLK
The normalized value in BLU units (SPOT analysis, Myo5 SH3) [3]: 234.6 BLU

RSRSKKDPGIPSNF
The normalized value in BLU units (SPOT analysis, Myo5 SH3) [3]: 800.0 BLU

MFNLLQKPEQPHQN
The normalized value in BLU units [2]: 204.0 BLU

KASSMPAPPPPPPP
The normalized value in BLU units [2]: 10514.9 BLU

SATGWLKPAVPIQW
The normalized value in BLU units (SPOT analysis, Myo5 SH3) [1]: 94.6 BLU

VAGYFVIPHTPMPS
The normalized value in BLU units [2]: 179.6 BLU

PLRERIIPILPANS
The normalized value in BLU units [2]: 175.1 BLU

FENRKHQPFTPKGM
The normalized value in BLU units [4]: 211.2 BLU

SFRELWQPVDPSRE
The normalized value in BLU units [2]: 97.3 BLU

KLPQLPPPPPPPPP
The normalized value in BLU units (SPOT analysis, Myo5 SH3) [1]: 54143.7 BLU

NAIEMALPNDPYPA
The normalized value in BLU units (SPOT analysis, Myo5 SH3) [1]: 87.2 BLU

TPSNMGSPGSPVNV
The normalized value in BLU units (SPOT analysis, Myo5 SH3) [1]: 156.2 BLU

LSRSKPLPLTPNSK
The normalized value in BLU units (SPOT analysis, Myo5 SH3) [3]: 323.9 BLU

AEVYYGPPTDPRKQ
The normalized value in BLU units (SPOT analysis, Myo5 SH3) [1]: 83.5 BLU

FEYSKYRPLTPSSE
The normalized value in BLU units (SPOT analysis, Myo5 SH3) [3]: 143.0 BLU

NETKLKFPTLPEVP
The normalized value in BLU units [2]: 254.7 BLU

LKDPKSFPPPPLKP
The normalized value in BLU units [4]: 252.9 BLU

HKFVKSSPVVPFDD
The normalized value in BLU units (SPOT analysis, Myo5 SH3) [3]: 150.9 BLU

PDLNKRPPREPIEF
The normalized value in BLU units (SPOT analysis, Myo5 SH3) [3]: 192.4 BLU

KLFVLLPPIDPKDG
The normalized value in BLU units [2]: 258.2 BLU

DFVTLHVPATPETE
The normalized value in BLU units [2]: 190.5 BLU

KTSTKAQPAEPQAE
The normalized value in BLU units [4]: 166.8 BLU

KPPVYRLPPLPRLK
The normalized value in BLU units [2]: 2305.8 BLU

KYIIKTEPESPEED
The normalized value in BLU units [2]: 245.5 BLU

GARFLPAPHRPEKY
The normalized value in BLU units [2]: 152.9 BLU

AGMAKTKPDVPLSY
The normalized value in BLU units [4]: 157.7 BLU

AVQLKRQPAQPRES
The normalized value in BLU units (SPOT analysis, Myo5 SH3) [3]: 237.9 BLU

KFTDMLDPEKPNVI
The normalized value in BLU units [2]: 262.4 BLU

TEVWRKVPMKPIFE
The normalized value in BLU units (SPOT analysis, Myo5 SH3) [3]: 242.9 BLU

SELYYEGPETPTPS
The normalized value in BLU units [2]: 50.5 BLU

NSNVRIPPTVPSKI
The normalized value in BLU units [4]: 423.1 BLU

KPPSYPSPAQPPKS
The normalized value in BLU units (SPOT analysis, Myo5 SH3) [1]: 11899.6 BLU

REGPKSCPRGPLCP
The normalized value in BLU units [4]: 188.5 BLU

VFSCLRDPVIPIKL
The normalized value in BLU units [2]: 132.4 BLU

LNRKKVTPQLPKVT
The normalized value in BLU units [4]: 499.8 BLU

KQRIRKIPGIPLMS
The normalized value in BLU units (SPOT analysis, Myo5 SH3) [3]: 621.8 BLU

AANAHISPPVPGPA
The normalized value in BLU units (SPOT analysis, Myo5 SH3) [1]: 28.6 BLU

FFTIWFIPLVPVFW
The normalized value in BLU units (SPOT analysis, Myo5 SH3) [1]: 396.7 BLU

INGEKACPFLPSSL
The normalized value in BLU units (SPOT analysis, Myo5 SH3) [3]: 183.7 BLU

KRKAKAPPPPPPPP
The normalized value in BLU units (SPOT analysis, Myo5 SH3) [3]: 4025.3 BLU

KNILKVCPVLPSIL
The normalized value in BLU units (SPOT analysis, Myo5 SH3) [3]: 117.9 BLU

NYHHRETPPPPPSN
The normalized value in BLU units (SPOT analysis, Myo5 SH3) [3]: 317.8 BLU

SFVGFPKPLLPRNH
The normalized value in BLU units (SPOT analysis, Myo5 SH3) [1]: 205.1 BLU

MEEPFIWPEEPRPD
The normalized value in BLU units [2]: 79.7 BLU

PFYTMPDPANPKYS
The normalized value in BLU units (SPOT analysis, Myo5 SH3) [1]: 145.1 BLU

LYREREEPPLPKRI
The normalized value in BLU units [2]: 112.3 BLU

VLKNLPTPGEPFNF
The normalized value in BLU units [2]: 148.4 BLU

EYFPREYPKDPVSE
The normalized value in BLU units [4]: 272.2 BLU

EKLIKITPDTPFGF
The normalized value in BLU units (SPOT analysis, Myo5 SH3) [3]: 205.9 BLU

SRSKRSKPLPPQLL
The normalized value in BLU units [2]: 884.3 BLU

ALDYLIPPPMPKNQ
The normalized value in BLU units (SPOT analysis, Myo5 SH3) [1]: 130.6 BLU

VEPEWYLPILPMIL
The normalized value in BLU units (SPOT analysis, Myo5 SH3) [1]: 235.7 BLU

IESFRERPLEPPRK
The normalized value in BLU units (SPOT analysis, Myo5 SH3) [3]: 98.7 BLU

KFVIHNEPIDPSDK
The normalized value in BLU units [2]: 46.7 BLU

APPALSAPSIPPVP
The normalized value in BLU units [2]: 10786.3 BLU

VARPLSVPGSPRDL
The normalized value in BLU units (SPOT analysis, Myo5 SH3) [1]: 186.0 BLU

DARPFLQPVDPVKL
The normalized value in BLU units (SPOT analysis, Myo5 SH3) [1]: 179.1 BLU

TEIYKLEPREPQVD
The normalized value in BLU units [4]: 29.1 BLU

PVPVRMQPQPPQPM
The normalized value in BLU units [4]: 187.8 BLU

KPLKFLRPTYPDLC
The normalized value in BLU units [2]: 149.2 BLU

YGDNKKNPESPESV
The normalized value in BLU units [4]: 147.1 BLU

TPINFVFPNLPLEH
The normalized value in BLU units [2]: 81.8 BLU

QPQAYHLPGNPYST
The normalized value in BLU units (SPOT analysis, Myo5 SH3) [1]: 187.4 BLU

SYMDKIYPDLPNDK
The normalized value in BLU units [4]: 83.0 BLU

TTNSRLCPSSPSSS
The normalized value in BLU units (SPOT analysis, Myo5 SH3) [3]: 160.8 BLU

YVKERRPPPPPPLL
The normalized value in BLU units [4]: 15869.6 BLU

KEVDLTRPSAPSEP
The normalized value in BLU units [2]: 132.2 BLU

INTFKTLPTKPEMQ
The normalized value in BLU units (SPOT analysis, Myo5 SH3) [3]: 167.1 BLU

LNATKISPSAPSKD
The normalized value in BLU units [4]: 114.4 BLU

ILAVKKNPQSPMYT
The normalized value in BLU units [4]: 175.4 BLU

GSYIKRTPKIPEKD
The normalized value in BLU units (SPOT analysis, Myo5 SH3) [3]: 206.2 BLU

TEGKYAPPSQPSMA
The normalized value in BLU units (SPOT analysis, Myo5 SH3) [1]: 222.8 BLU

LQYHKKNPYSPLFS
The normalized value in BLU units [2]: 317.8 BLU

QGSNKYSPSSPLTT
The normalized value in BLU units (SPOT analysis, Myo5 SH3) [3]: 171.4 BLU

NNLKKRPPTAPQRK
The normalized value in BLU units [4]: 418.9 BLU

PEPTMGSPDAPPLV
The normalized value in BLU units [2]: 106.8 BLU

TAAELQAPPPPPSS
The normalized value in BLU units (SPOT analysis, Myo5 SH3) [1]: 315.2 BLU

PKCEKIEPLSPSFK
The normalized value in BLU units (SPOT analysis, Myo5 SH3) [3]: 116.4 BLU

MRRCKDAPIEPPKY
The normalized value in BLU units [4]: 155.1 BLU

ALWAKFFPEKPLNI
The normalized value in BLU units [2]: 154.0 BLU

SANGKFIPSRPAPK
The normalized value in BLU units [4]: 6758.2 BLU

NEDTFLPPPPPPPS
The normalized value in BLU units (SPOT analysis, Myo5 SH3) [1]: 20439.9 BLU

VVNEKEVPAEPETQ
The normalized value in BLU units (SPOT analysis, Myo5 SH3) [3]: 100.0 BLU

AKSNKVSPEDPAVQ
The normalized value in BLU units [2]: 371.0 BLU
